Data taken from ChEMBL document CHEMBL3301448, “MMV Malaria Box screening against Toxoplasma gondii and Entamoeba histolytica”.
pIC50: −log10 of the molar value.

Experiments:
Toxoplasma gondii = experiment: MMV: A total of 100ul of inoculum was added to each well (parasite/cell ratio, ~10:1; final volume, 200 ul). Six hours after inoculation, nonadherent parasites were removed, and 100 ul of complete DMEM (1% penicillin-streptomycin, 3% FBS) supplemented with inhibitors at different concentrations (2-fold serial dilutions starting from 30 uM) was added to all except the negative-control wells. Positive controls, consisting of pyrimethamine (PYR) and sulfadiazine (SDZ) (20-mg/ml stocks in DMSO), were tested at a 2mg/ml final concentration. Each test was performed in triplicate.; format: functional, organism-based; settings: 6 h
Entamoeba histolytica = experiment: MMV: Primary screening was performed with each compound at a 30 uM final concentration and in triplicate in sealed 96-well polystyrene microtiter plates. Parasite inocula (100 ul) comprising 20000 parasites/ml were added to each well and grown at 37 degrees C in a humidified atmosphere of 5% CO2 for 72 h. Positive controls consisted of metronidazole at 1 mg/ml. The growth of E. histolytica trophozoites in each well was determined microscopically by measuring the diameters of the confluent cells in drug-containing wells relative to those in the nega- tive-control wells.; format: functional, organism-based

Structure (SMILES) | pIC50 (Toxoplasma gondii) | pIC50 (Entamoeba histolytica)
CCN1CCCC1CNc1[nH]cnc2c3cc(Cl)ccc3nc1-2 (stereo not given) | < 4.52 | < 4.52
C[n+]1c2ccccc2nc2ccc(NCCO)cc21 | < 4.52 | < 4.52
O=C(Nc1ccccc1O)c1ccc(Oc2cccc(C(=O)Nc3ccccc3O)c2)cc1 | 4.88 | < 4.52
Cc1ccc(-c2cc3c(nn2)-c2ccccc2C3=O)cc1 | < 4.52 | < 4.52
Cc1ccc(Nc2nc(-c3ccccn3)cs2)cc1 | < 4.52 | < 4.52
N=c1n(CCN2CCCCC2)c2ccccc2n1CC(O)c1cccc(Br)c1 (stereo not given) | < 4.52 | < 4.52
COc1cccc(O)c1CN1CCC2(CCCN(Cc3ccc(F)cc3)C2)C1 (stereo not given) | < 4.52 | < 4.52
O=C(NCc1ccco1)C1CCN(S(=O)(=O)c2ccc(Cl)cc2)CC1 | < 4.52 | < 4.52
COc1ccc(C(=O)Nc2ccc3nc(N4CCCCC4)cc(C)c3c2)cc1OC | 4.59 | < 4.52
FC(F)(F)c1ccc(Nc2nnnc3ccccc23)cc1 | < 4.52 | < 4.52
c1ccc(-c2ccc(-c3nc4ccccc4[nH]3)cc2)cc1 | < 4.52 | < 4.52
CCC(C)NCC(O)(c1ccc(Cl)cc1)c1ccc(Cl)cc1 (stereo not given) | < 4.52 | < 4.52
COc1cccc(NC(=O)Cn2c(C)c(C#N)c3ccccc32)c1 | < 4.52 | < 4.52
CCOc1cc2c(cc1OCC)C(c1cc(OC)c(O)cc1Cl)NCC2 (stereo not given) | < 4.52 | < 4.52
COCCNC(=O)c1ccc(OC2CCN(Cc3ccc(F)c(F)c3)CC2)c(Cl)c1 | < 4.52 | < 4.52
CC(C)=CCN1CCC(C(=O)Nc2ccc(-c3nc4ccccc4[nH]3)cc2)CC1 | < 4.52 | < 4.52
O=C(CCc1ccco1)NC1CCN(CC2(c3ccc(Cl)cc3)CCC2)CC1 | 4.62 | < 4.52
COc1cccc(C=Cc2nc(=O)c3ccccc3o2)c1OC | < 4.52 | < 4.52
FC(F)(F)c1cccc(Nc2nc(-c3ccccc3)nc3ncccc23)c1 | < 4.52 | < 4.52
CCN1CCN(c2cc(C)c3cc(NC(=O)c4ccc(OC)c(OC)c4)ccc3n2)CC1 | < 4.52 | < 4.52
COc1ccc(C(=O)Nc2nonc2-c2ccc(OC)c(OC)c2)cc1Cl | < 4.52 | < 4.52
COc1ccc(CNC2CCN(c3ccc(NC(=O)c4cccc(Cl)c4)cc3)CC2)cc1OC | < 4.52 | < 4.52

Structure (SMILES) | pIC50 (Toxoplasma gondii) | pIC50 (Entamoeba histolytica)
COCCN(C(=O)Cc1cccs1)C(C(=O)NCc1ccc(OC)cc1)c1ccc(C(C)C)cc1 (stereo not given) | < 4.52 | < 4.52
CC(NCc1ccccc1)c1cc(Cl)ccc1O (stereo not given) | 4.67 | < 4.52
COc1ccc2c(c1)OC(O)(C(F)(F)C(F)(F)F)CC2=O (stereo not given) | < 4.52 | < 4.52
FC(F)(F)c1cccc(CNC2CCN(CCc3ccccc3)CC2)c1 | < 4.52 | < 4.52
Oc1ccc(Cl)cc1CNc1nc2ccccc2[nH]1 | 4.57 | < 4.52
CCOc1cc(Cl)c(C(C)NC(=O)c2ccccc2)cc1OCC (stereo not given) | < 4.52 | < 4.52
O=C(c1ccccc1F)N(Cc1ccc(Cl)cc1)c1ccccn1 | < 4.52 | < 4.52
COc1ccc(C(=O)Nc2ccc(Cl)cc2C(=O)Nc2ccncc2)cc1 | < 4.52 | < 4.52
O=C(Nc1ccc(CN2CCOCC2)cc1)c1ccc(-c2ccc(Br)cc2)o1 | < 4.52 | < 4.52
O=C(Nc1ccc(Cl)cc1)N1CCN(c2ccc3nncn3n2)CC1 | < 4.52 | < 4.52
CN(C)c1ccc(-c2nc3cc(N)ccc3[nH]2)cc1 | < 4.52 | < 4.52
c1ccc2cc3c(Nc4ccc(N5CCOCC5)cc4)ccnc3cc2c1 | < 4.52 | 4.81
O=C(CSc1ccc2nnc(-c3cccc(F)c3)n2n1)Nc1ccc2c(c1)OCO2 | < 4.52 | < 4.52
Cc1c(C)n(Cc2ccc(F)cc2)c2ccc(C(=O)NCc3ccco3)cc12 | < 4.52 | < 4.52
CCN(CC)c1ccc(NC(=O)c2cccs2)cc1 | < 4.52 | < 4.52
CCCCNCC(O)(c1ccc(Cl)cc1)c1ccc(Cl)cc1 | < 4.52 | < 4.52
CCOC(=O)c1cn(CC)c2cc(N3CCCCC3)c(F)cc2c1=O | < 4.52 | < 4.52
CCn1c(SCC(=O)Nc2cc(C(F)(F)F)ccc2Cl)nc2ccccc2c1=O | < 4.52 | < 4.52
Cc1ccc(Cn2c(N3CCC(C(=O)NCc4cccs4)CC3)nc3ccccc32)cc1 | < 4.52 | < 4.52
O=C(Nc1ccsc1C(=O)NC1CCCCC1)c1ccc(F)cc1 | < 4.52 | < 4.52
O=C(Nc1ccc(Cl)cc1C(=O)Nc1ccncc1)c1ccc(Cl)cc1Cl | 4.72 | < 4.52
O=C(Nc1cccc(C(F)(F)F)c1)c1cc(Cl)ccc1O | < 4.52 | < 4.52

Structure (SMILES) | pIC50 (Toxoplasma gondii) | pIC50 (Entamoeba histolytica)
CCOc1cccc2sc(N(Cc3cccnc3)C(=O)C3CCCCC3)nc12 | < 4.52 | < 4.52
CCOc1ccc(-c2nonc2NC(=O)c2cccc(C)c2)cc1OCC | < 4.52 | < 4.52
CCN(CC)c1cc(C)c2cc(NC(=O)c3cccc(OC)c3)ccc2n1 | < 4.52 | < 4.52
CC(C)(C)CC(C)(C)NCC(O)COc1ccc2c(c1)CCC2 (stereo not given) | < 4.52 | < 4.52
CCOc1ccc(/C=C/c2nc(=O)c3ccccc3o2)cc1 | < 4.52 | < 4.52
O=C(Nc1ccccc1O)c1ccc(-c2ccc(Cl)cc2Cl)o1 | < 4.52 | < 4.52
O=C(Nc1nc(-c2ccccn2)cs1)c1ccccc1Br | < 4.52 | < 4.52
CC(O)(c1ccc(Cl)cc1)C(CN1CCCCC1)c1ccccc1 (stereo not given) | < 4.52 | < 4.52
CCCCc1ccc(NS(=O)(=O)c2cc3c4c(c2)CCN4C(=O)CC3)cc1 | < 4.52 | < 4.52
CCOc1ccc(-c2nc(NC(=O)c3cccc(S(C)(=O)=O)c3)sc2C)cc1 | < 4.52 | < 4.52
CCOc1ccccc1CNC(=O)C1c2ccccc2C(=O)N(CC(C)C)C1c1cccs1 (stereo not given) | < 4.52 | < 4.52
CCOC(=O)c1ccc2nc(-c3ccccc3)cc(O)c2c1 | < 4.52 | < 4.52
Cc1cc(Nc2ccc(Cl)cc2)n2nc(C(F)(F)F)nc2n1 | < 4.52 | < 4.52
COc1ccccc1N1CCN(C(CNS(=O)(=O)c2ccc(Cl)cc2)c2cccnc2)CC1 (stereo not given) | < 4.52 | < 4.52
CCCCCCOC(=O)C1=C(C)NC(=O)NC1c1ccccc1F (stereo not given) | < 4.52 | < 4.52
COc1ccc(C2Sc3ccccc3N=C3C2=C(O)c2ccccc23)cc1 (stereo not given) | < 4.52 | < 4.52
CCN(CC)CCCNc1nc(-c2ccc(Cl)cc2)nc2ccccc12 | < 4.52 | < 4.52
Cc1ccc(Nc2nc(NCCO)c3ccccc3n2)cc1C | < 4.52 | < 4.52
CC1CCCCN1CCCNC(=O)c1ccc2c(c1)sc1nc(-c3ccc(F)cc3)cn12 (stereo not given) | < 4.52 | < 4.52
COc1ccc(NC(=O)C2c3ccccc3C(=O)N(CC(C)C)C2c2cccs2)cc1 (stereo not given) | < 4.52 | < 4.52
C=C(C)CCC(C)N1CCC(N2CCC(C(=O)NCCc3ccccc3)CC2)CC1 (stereo not given) | 4.57 | < 4.52
